We go through four compounds from ChEMBL document CHEMBL2375210, “Caulerprenylols A and B, two rare antifungal prenylated para-xylenes from the green alga Caulerpa racemosa” (Bioorg Med Chem Lett, 2013).

pIC50: −log10 of the molar value. ≈ marks a conversion by molar mass, not a printed value. A value given as a limit tells only on which side of the number the result lay.

Usually MIC80 stands for the lowest concentration that inhibits either 80% of growth or 80% of the strains tested, depending on the study. A higher MIC80 goes with weaker potency. Usually pIC50 stands for the IC50 on a negative log10 scale, so that one unit is a factor of ten. Higher therefore signals a low IC50.

The subject of assay [1] is Aspergillus fumigatus. Briefly: Antifungal activity against Aspergillus fumigatus ATCC 07544 after 24 hrs to 1 week. In kind it is functional.
For assay [2], the system named is Cryptococcus neoformans. Briefly: Antifungal activity against Cryptococcus neoformans ATCC 32609 after 24 hrs to 1 week. The assay is classed as functional.
Assay [3] concerns Trichophyton rubrum. Briefly: Antifungal activity against Trichophyton rubrum Cmccftla after 24 hrs to 1 week. In kind it is functional.
Assay [4] concerns Nakaseomyces glabratus. Briefly: Antifungal activity against Candida glabrata ATCC 537 after 24 hrs to 1 week. The assay is classed as functional.
Assay [5] deals with HL-60. Briefly: Cytotoxicity against human HL60 cells by MTT assay. The assay is classed as cell-based.
Assay [6] relates to A549. Briefly: Cytotoxicity against human A549 cells by MTT assay. The assay is classed as cell-based.

Take `Cc1ccc(C)c(/C=C/C(C)(C)O)c1/C=C/C(C)(C)O`: the MIC80 in assay [1] is not below 64 µg/mL; in assay [2], 64 µg/mL (≈ 233 µM); in assay [3], 64 µg/mL (≈ 233 µM); in assay [4], 64 µg/mL (≈ 233 µM). The pIC50 in assay [5] and in assay [6] was not above 4.00 in each case.
As to `CC(C)=C[C@H]1c2c(C)ccc(C)c2[C@@H](O)[C@@H]1C(C)(C)O` (relative stereo), the MIC80 in assay [1] was not below 64 µg/mL; in assay [2], 4 µg/mL (≈ 14.6 µM); in assay [3] it was 16 µg/mL (≈ 58.3 µM); in assay [4] it was 4 µg/mL (≈ 14.6 µM). The pIC50 in assay [5] and in assay [6] was not above 4.00 in each case.
As to `C[C@@H]1[C@H](O)[C@@H](C)/C=C/C=C/C=C/C=C/C=C/C=C/C=C/[C@H](O[C@@H]2O[C@H](C)[C@@H](O)[C@H](N)[C@@H]2O)C[C@@H]2O[C@](O)(C[C@@H](O)C[C@@H](O)[C@H](O)CC[C@@H](O)C[C@@H](O)CC(=O)O[C@H]1C)C[C@H](O)[C@H]2C(=O)O` [AMPHOTERICIN B], the MIC80 in assay [2] amounted to 4 µg/mL (≈ 4.33 µM); in assay [3], 1 µg/mL (≈ 1.08 µM); in assay [4] it was 2 µg/mL (≈ 2.16 µM).
In assay [5], `COc1cccc2c1C(=O)c1c(O)c3c(c(O)c1C2=O)C[C@@](O)(C(=O)CO)C[C@@H]3O[C@H]1C[C@H](N)[C@H](O)[C@H](C)O1` [DOXORUBICIN] showed a pIC50 of 6.92.
